Measurements as given in patent publication US9260439B2, “Dihydropyrrolopyrimidine derivatives” (PFIZER INC., priority 2014, dated 2016).
Counter-ions that a name gives are not always drawn.

biological target: full-length PI3Kα (full-length p110α/p85α) (Homo sapiens (Human), UniProt P42336); experiment: PI3KA_FL fluorescence polarization kinase assay (Ki); assay type: biochemical; conditions: 41 μM ATP
Description: Enzyme Production for Biochemical Assays: 1) PI3Kα Complex (Full Length p110α and p85α)(“PI3KA_FL”)
Genes encoding for full length p110α and p85α subunits of PI3Kα complex were subcloned from existing constructs into pFASTBAC Dual vector (Life Technologies, Carlsbad, Calif.) using standard cloning procedures. Gene encoding p110α subunit was subcloned into polyhedrine promoter while gene encoding p85α subunit was subcloned into p10 promoter. Additionally, sequence encoding for histidine tag and Tobacco Etch Virus (“TEV”) cleavage site preceded p110α ORF (Open Reading Frame). Recombinant baculovirus was generated using Bac-to-Bac protocol (Life Technologies, Carlsbad, Calif.) and large scale expression was conducted in Sf21 (Life Technologies, Carlsbad, Calif.) cells at a multiplicity of infection (“MOI”)=1 for 72 hours. Cells were lyzed in 50 mM Tris pH 8.0, 250 mM NaCl, 5% glycerol, 0.25 mM TCEP, and 20 mM imidazole. The PI3Kα complex was purified from clarified supernatant using Immobilized Metalo Affinity Chromatography (“IMAC”). The protein was eluted from the column using 50 mM Tris pH 8.0, 200 mM NaCl, 5% glycerol, 0.25 mM TCEP, and 200 mM imidazole, and further desalted into 50 mM Tris pH 8.0, 20 mM NaCl, and 0.25 mM TCEP prior to loading on MonoQ sepharose (GE Healthcare, Piscataway, N.J.). PI3Kα complex was eluted from MonoQ sepharose over 20 column volumes using 0-30% gradient of buffer B (50 mM Tris pH 8.0, 1 M NaCl, and 0.25 mM TCEP). The peak fractions were pulled together and loaded on Superdex 200 26/60 SEC column equilibrated in 50 mM Tris pH 8.0, 200 mM NaCl, and 0.5 mM TCEP. […] Purity and integrity of the complex was confirmed using LCMS, analytical SEC and SDS-PAGE (sodium dodecyl sulfate polyacrylamide gel electrophoresis) analysis.
The biochemical assays of kinase activity of full-length PI3Kα (full-length p110α/p85a) or truncated PI3Kα (p110α/iSH2 p85a) were conducted using a fluorescence polarization format similar to the procedure of Yuan J., et al., (2011) “PF-04691502, a Potent and Selective Oral Inhibitor of PI3K and mTOR Kinases with Antitumor Activity”, Mol Cancer Ther. 10, 2189-2199. The enzymatic reactions were conducted in 50 μL volumes in 96-well plates. The reactions contained human recombinant PI3Kα (2 nM full-length p110α/p85α or 0.5 nM p110α/iSH2 p85) and 30 μM phosphatidylinositol 4,5-bisphosphate (“PIP2”) (Cayman Chemical Company, Ann Arbor, Mich.) and were sonicated for 1 minute prior to adding PI3Kα enzyme (PI3KA_Act or PI3KA_FL), DMSO or test compound (12-point 3-fold serial dilution, 3 μM top dose, 2° A) DMSO final concentration), 5 mM MgCl2, 50 mM HEPES pH 7.4, 150 mM NaCl, 1 mM DTT ((2S,3S)-1,4-bis(sulfanyl)butane-2,3-diol), and 0.05% 3-[(3-cholamidopropyl)dimethylammonio]-1-propanesulfonate (“CHAPS”). […] The reactions were incubated for 30 min at room temperature, stopped with EDTA pH 8 (10 mM final concentration). In a detection plate, 15 μL of detector/probe mixture, containing 480 nM GST-Grp1 PH domain protein (University of Dundee, Dundee, UK) and 12 nM carboxytetramethylrhodamine (“TAMRA”)-tagged fluorescent phosphatidylinositol (3,4,5)-triphosphate (“PIP3”) (Echelon Biosciences, Inc., Salt Lake City, Utah) in assay buffer, was mixed with 15 μL of kinase reaction mixture. The plate was shaken for 30 minutes and fluorescence polarization values were measured on an LJL Analyst HT plate reader (Molecular Devices, Sunnyvale, Calif.). […] The inhibition constants (Ki) were calculated by fitting fluorescence polarization values, corresponding to initial reaction rates, to the Morrison equation (Morrison, J. F. (1969) Kinetics of the reversible inhibition of enzyme catalysed reactions by tight-binding inhibitors. Biochim. Biophys. Acta 185, 269-286) for tight-binding competitive inhibitors using non-linear regression method (GraphPad Prism, GraphPad Software, San Diego, Calif.).

Chain of full-length PI3Kα (full-length p110α/p85α) (P42336 whole entry): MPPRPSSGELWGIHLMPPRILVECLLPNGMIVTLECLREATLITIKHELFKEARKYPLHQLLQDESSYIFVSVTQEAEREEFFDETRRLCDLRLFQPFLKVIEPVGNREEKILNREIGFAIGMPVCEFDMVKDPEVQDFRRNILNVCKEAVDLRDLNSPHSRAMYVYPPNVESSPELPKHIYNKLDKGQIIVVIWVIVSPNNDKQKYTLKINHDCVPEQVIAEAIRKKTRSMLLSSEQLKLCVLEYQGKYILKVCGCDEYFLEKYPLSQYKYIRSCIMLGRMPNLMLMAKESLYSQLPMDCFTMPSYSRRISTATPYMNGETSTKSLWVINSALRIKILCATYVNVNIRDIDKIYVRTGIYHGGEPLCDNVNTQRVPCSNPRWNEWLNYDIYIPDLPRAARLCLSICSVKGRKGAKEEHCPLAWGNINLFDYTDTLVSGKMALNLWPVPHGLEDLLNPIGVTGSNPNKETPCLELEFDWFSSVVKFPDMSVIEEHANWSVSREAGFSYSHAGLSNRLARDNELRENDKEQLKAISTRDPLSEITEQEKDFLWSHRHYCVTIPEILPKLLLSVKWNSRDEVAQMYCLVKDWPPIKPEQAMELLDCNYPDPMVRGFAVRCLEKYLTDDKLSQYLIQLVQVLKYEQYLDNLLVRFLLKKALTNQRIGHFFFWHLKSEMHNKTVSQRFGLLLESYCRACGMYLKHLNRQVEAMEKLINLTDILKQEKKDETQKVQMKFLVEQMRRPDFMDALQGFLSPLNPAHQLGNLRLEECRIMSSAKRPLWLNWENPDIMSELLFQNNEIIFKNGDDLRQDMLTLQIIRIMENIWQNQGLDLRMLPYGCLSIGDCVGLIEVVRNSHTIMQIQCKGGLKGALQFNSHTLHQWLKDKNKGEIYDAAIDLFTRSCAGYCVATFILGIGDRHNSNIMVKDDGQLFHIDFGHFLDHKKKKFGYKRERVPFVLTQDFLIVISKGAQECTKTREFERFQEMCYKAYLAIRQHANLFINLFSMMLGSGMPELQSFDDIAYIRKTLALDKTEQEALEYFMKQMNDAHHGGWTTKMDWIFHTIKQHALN
Chain of full-length PI3Kα (full-length p110α/p85α) (P27986 whole entry partner): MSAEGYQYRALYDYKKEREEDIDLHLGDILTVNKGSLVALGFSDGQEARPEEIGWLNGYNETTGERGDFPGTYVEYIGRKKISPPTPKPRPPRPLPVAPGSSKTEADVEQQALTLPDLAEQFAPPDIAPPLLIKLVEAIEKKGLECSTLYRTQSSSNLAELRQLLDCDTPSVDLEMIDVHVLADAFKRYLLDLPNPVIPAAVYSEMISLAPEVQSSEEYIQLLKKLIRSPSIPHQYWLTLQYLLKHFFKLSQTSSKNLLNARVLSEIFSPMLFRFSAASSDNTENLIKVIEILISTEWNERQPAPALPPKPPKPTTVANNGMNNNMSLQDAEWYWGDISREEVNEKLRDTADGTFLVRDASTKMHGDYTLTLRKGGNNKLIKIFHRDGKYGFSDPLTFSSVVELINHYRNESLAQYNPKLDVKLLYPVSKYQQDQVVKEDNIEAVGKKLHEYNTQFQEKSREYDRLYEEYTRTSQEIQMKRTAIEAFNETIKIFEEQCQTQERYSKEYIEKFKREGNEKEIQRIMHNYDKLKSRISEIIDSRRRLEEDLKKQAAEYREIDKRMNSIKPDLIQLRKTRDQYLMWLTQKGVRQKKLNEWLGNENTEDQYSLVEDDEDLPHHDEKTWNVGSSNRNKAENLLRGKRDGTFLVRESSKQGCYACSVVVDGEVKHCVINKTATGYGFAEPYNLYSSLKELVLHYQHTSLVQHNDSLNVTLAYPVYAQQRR

Row | Compound | PI3KA_FL Ki [nM]
1 | CC(=O)N1C[C@@H](N2CCc3c(-c4cnc(N)nc4)nc(N4CCOCC4)nc32)[C@H](C(F)F)C1 [Example 63] | 6.612
2 | C[C@H]1COCCN1c1nc(-c2cnc(N)nc2)c2c(n1)N(C1CC(F)(F)C1)CC2 [Example 87] | 0.462
3 | CC(=O)N[C@H]1C[C@@H](N2CCc3c(-c4cnc(N)nc4)nc(N4CCOCC4)nc32)C1 [Example 23] | 9.696
4 | Nc1ncc(-c2nc(N3CCOCC3)nc3c2CCN3[C@@H]2CCNC(=O)C2)cn1 [Example 77] | 8.025
5 | Nc1ncc(-c2nc(N3CCOCC3)nc3c2CCN3[C@@H]2CCOC2)cn1 [Example 17] | 4.273
6 | Nc1ncc(-c2nc(N3CCOCC3)nc3c2CCN3[C@H]2C[C@@H](F)C2)cn1 [Example 64] | 0.508
7 | C[C@H]1COCCN1c1nc(-c2cnc(N)nc2)c2c(n1)N([C@@H]1CCN(C(=O)NC(C)(C)C)C1)CC2 [Example 138] | 5.547
8 | CC(=O)N(C)[C@H]1C[C@H](N2CCc3c(-c4cnc(N)nc4)nc(N4CCOCC4)nc32)C1 [Example 21] | 5.393
9 | Nc1ncc(-c2nc(N3CCOCC3)nc3c2CCN3[C@H]2C[C@H](O)C2)cn1 [Example 24] | 0.961
10 | CC(=O)N1C[C@@H](N2CCc3c(-c4cnc(N)nc4)nc(N4CCOCC4)nc32)[C@@H](F)C1 (single isomer, unassigned) [Example 75] | 1.106
11 | CNC(=O)N1CC[C@H](N2CCc3c(-c4cnc(N)nc4)nc(N4CCOCC4)nc32)C1 [Example 27] | 1.025
12 | CC(=O)N1C[C@@H](C)[C@@H](N2CCc3c(-c4cnc(N)nc4)nc(N4CCOCC4)nc32)C1 [Example 68] | 9.393
13 | Nc1ncc(-c2nc(N3CCOCC3)nc3c2CCN3C2CCCOC2)cn1 (racemic) [Example 37] | 7.189
14 | CC(=O)N1C[C@H](C(F)F)[C@@H](N2CCc3c(-c4cnc(N)nc4)nc(N4CCOCC4)nc32)C1 [Example 71] | 8.899

biological target: truncated PI3Kα (p110α/iSH2 p85α) (Homo sapiens (Human), UniProt P42336); experiment: PI3KA_Act fluorescence polarization kinase assay (Ki); assay type: biochemical; conditions: 1 mM ATP
Sequence (P42336 whole entry, the tested form may be a part): as the sequence (P42336 whole entry) above
Procedure, shortened: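 Ki values result from fitting fluorescence polarization signals to the Morrison equation for tight-binding competitive inhibitors. The detector was GST-Grp1 PH domain with TAMRA-PIP3, read after a 30 min room-temperature reaction of 0.5 nM truncated PI3Kα and 30 μM PIP2 at pH 7.4 in HEPES/NaCl/MgCl2/DTT/CHAPS buffer. Compounds were tested as 12-point 3-fold dilutions from 3 μM.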

Row | Compound | PI3KA_Act Ki [nM] | Ki [nM]
15 | C[C@]1(N2CCc3c(-c4cnc(N)nc4)nc(N4CCOCC4)nc32)CCN(C(=O)[C@@H]2C[C@H]2F)C1 [Example 333, {(3S)-3-[4-(2-aminopyrimidin-5-yl)-2-(morpholin-4-yl)-5,6-dihydro-7H-pyrrolo[2,3-d]pyrimidin-7-yl]-3-methylpyrrolidin-1-yl}[(1S,2R)-2-fluorocyclopropyl] methanone] | <0.018 | –
16 | C[C@H]1COCCN1c1nc(-c2cnc(N)nc2)c2c(n1)N([C@H]1CCN(P(C)(C)=O)C1)CC2 [Example 168] | 0.297 | –
17 | C[C@H]1COCCN1c1nc(-c2cnc(N)nc2)c2c(n1)N([C@@]1(C)CN(C(=O)OC(C)(C)C)C[C@@H]1C)CC2 [Example 511, tert-butyl (3R,4S)-3-{4-(2-aminopyrimidin-5-yl)-2-[(3S)-3-methylmorpholin-4-yl]-5,6-dihydro-7H-pyrrolo[2,3-d]pyrimidin-7-yl}-3,4-dimethylpyrrolidine-1-carboxylate] | 0.915 | –
18 | CC1(C)CN=C(N2CC[C@](C)(N3CCc4c(-c5cnc(N)nc5)nc(N5CCOCC5)nc43)C2)O1 [Example 8, 5-{7-[(3S)-1-(5,5-dimethyl-4,5-dihydro-1,3-oxazol-2-yl)-3-methylpyrrolidin-3-yl]-2-(morpholin-4-yl)-6,7-dihydro-5H-pyrrolo[2,3-d]pyrimidin-4-yl}pyrimidin-2-amine] | 0.019 | –
19 | COC1CN(C(=O)N2CC[C@@](C)(N3CCc4c(-c5cnc(N)nc5)nc(N5CCOCC5)nc43)C2)C1 [Example 368, {(3R)-3-[4-(2-aminopyrimidin-5-yl)-2-(morpholin-4-yl)-5,6-dihydro-7H-pyrrolo[2,3-d]pyrimidin-7-yl]-3-methylpyrrolidin-1-yl}(3-methoxyazetidin-1-yl)methanone] | 0.127 | –
20 | CC(C)OC(=O)N1CC[C@@](C)(N2CCc3c(-c4cnc(N)nc4)nc(N4CCOCC4)nc32)C1 [Example 407, propan-2-yl (3R)-3-[4-(2-aminopyrimidin-5-yl)-2-(morpholin-4-yl)-5,6-dihydro-7H-pyrrolo[2,3-d]pyrimidin-7-yl]-3-methylpyrrolidine-1-carboxylate] | 0.235 | –
21 | CC[C@]1(N2CCc3c(-c4cnc(N)nc4)nc(N4CCOCC4)nc32)CCN(C(=O)OC(C)(C)C)C1 [Example 411, tert-butyl (3S)-3-[4-(2-aminopyrimidin-5-yl)-2-(morpholin-4-yl)-5,6-dihydro-7H-pyrrolo[2,3-d]pyrimidin-7-yl]-3-ethylpyrrolidine-1-carboxylate] | <0.018 | –
22 | CCC(=O)NCC(=O)N1CC(N2CCc3c(-c4cnc(N)nc4)nc(N4CCOCC4)nc32)C1 [Example 244, N-(2-{3-[4-(2-aminopyrimidin-5-yl)-2-(morpholin-4-yl)-5,6-dihydro-7H-pyrrolo[2,3-d]pyrimidin-7-yl]azetidin-1-yl}-2-oxoethyl)propanamide] | 0.598 | –
23 | C[C@@H]1COCCN1c1nc(-c2cnc(N)nc2)c2c(n1)N([C@]1(C)CCNC1)CC2 [Example 226] | 7.437 | –
24 | C[C@]1(N2CCc3c(-c4cnc(N)nc4)nc(N4CCOCC4)nc32)CCN(C(=O)[C@@H](N)CF)C1.Cl [Example 293, (2R)-2-amino-1-{(3S)-3-[4-(2-aminopyrimidin-5-yl)-2-(morpholin-4-yl)-5,6-dihydro-7H-pyrrolo[2,3-d]pyrimidin-7-yl]-3-methylpyrrolidin-1-yl}-3-fluoropropan-1-one hydrochloride] | 0.086 | –
25 | C[C@H]1COCCN1c1nc(-c2cnc(N)nc2)c2c(n1)N([C@H]1[C@H]3C[C@@H]1N(C(=O)OC(C)(C)C)C3)CC2 [Example 523, tert-butyl (1S,4S,5S)-5-{4-(2-aminopyrimidin-5-yl)-2-[(3S)-3-methylmorpholin-4-yl]-5,6-dihydro-7H-pyrrolo[2,3-d]pyrimidin-7-yl}-2-azabicyclo[2.1.1]hexane-2-carboxylate] | – | 5.21
26 | CC(C)(C)OC(=O)N1C[C@@H](F)[C@@H](N2CCc3c(-c4cnc(N)nc4)nc(N4CCOCC4)nc32)C1 [Example 409, tert-butyl (3S,4R)-3-[4-(2-aminopyrimidin-5-yl)-2-(morpholin-4-yl)-5,6-dihydro-7H-pyrrolo[2,3-d]pyrimidin-7-yl]-4-fluoropyrrolidine-1-carboxylate] | 0.168 | –
27 | CN[C@H]1C[C@H](N2CCc3c(-c4cnc(N)nc4)nc(N4CCOC[C@@H]4C)nc32)C1.Cl [Example 445, 5-{7-[trans-3-(methylamino)cyclobutyl]-2-[(3S)-3-methylmorpholin-4-yl]-6,7-dihydro-5H-pyrrolo[2,3-d]pyrimidin-4-yl}pyrimidin-2-amine hydrochloride] | 0.993 | –

same assay, conditions: 1 mM ATP, hydrochloride

Row | Compound | PI3KA_Act Ki [nM]
28 | CC1(C(=O)N2CC[C@](C)(N3CCc4c(-c5cnc(N)nc5)nc(N5CCOCC5)nc43)C2)CCCO1 (single isomer, unassigned) [Example 375, hydrochloride] | 0.043
